In PubChem BioAssay AID252 (DTP/NCI, 2004):
“And” between values parts separate entries of the source, which are not always exact repeats. Equal values may be shown once. Inconclusive results and toxic doses are left out.

Test system: BDF1 mice, intracerebral L1210 leukemia, survival T/C
Assay: NCI In Vivo Anticancer Drug Screen. Data for tumor model L1210 Leukemia (intracerebral) in B6D2F1 (BDF1) mice
Settings: higher = longer survival
Summary of the method: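 Mice carrying transplanted tumour were dosed with compound; survival was recorded and expressed as treated-group value (T) divided by vehicle-control value (C).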

[1] = endpoint: mean survival time, dose: 112.0 mg/kg/injection, schedule: Q01DX001 (ip), vehicle: carboxymethylcellulose (CMC)
[2] = endpoint: mean survival time, dose: 25.0 mg/kg/injection, schedule: Q01DX Z (ip), vehicle: saline

`O=NN(CCCl)C(=O)Nc1ccc(C(F)(F)F)cc1` was tested, and the T/C (endpoint: mean survival time, dose: 37.0 mg/kg/injection, schedule: Q01DX001 (ip), vehicle: carboxymethylcellulose (CMC)) was 110 % of control, the T/C (endpoint: mean survival time, dose: 50.0 mg/kg/injection, schedule: Q01DX001 (ip), vehicle: carboxymethylcellulose (CMC)) was 110 % of control and the T/C (endpoint: mean survival time, dose: 75.0 mg/kg/injection, schedule: Q01DX001 (ip), vehicle: carboxymethylcellulose (CMC)) was 118 % of control. The T/C [1] was 92 % of control.
With `O=P1(N(CCCl)CCCl)NCCCO1` (stereo not given) the T/C (endpoint: mean survival time, dose: 17.5 mg/kg/injection, schedule: Q01DX Z (ip), vehicle: saline) was 116 % of control, the T/C (endpoint: mean survival time, dose: 22.0 mg/kg/injection, schedule: Q01DX015 (ip), vehicle: saline) was 112 % of control and the T/C [2] was 121 % of control. The T/C (endpoint: mean survival time, dose: 28.0 mg/kg/injection, schedule: Q01DX001 (ip), vehicle: saline) was 104 % of control and 118 % of control, the T/C (endpoint: mean survival time, dose: 33.5 mg/kg/injection, schedule: Q01DX015 (ip), vehicle: saline) was 123 % of control and the T/C (endpoint: mean survival time, dose: 39.0 mg/kg/injection, schedule: Q01DX009 (sc), vehicle: saline) was 151 % of control. For the same molecule, the T/C (endpoint: mean survival time, dose: 50.0 mg/kg/injection, schedule: Q01DX001 (ip), vehicle: DMSO) was 111 % of control and 119 % of control and 121 % of control, the T/C (endpoint: mean survival time, dose: 50.0 mg/kg/injection, schedule: Q01DX001 (ip), vehicle: Klucel (hydroxypropylcellulose) (HPC)) was 119 % of control and 121 % of control and the T/C (endpoint: mean survival time, dose: 50.0 mg/kg/injection, schedule: Q01DX001 (ip), vehicle: water) was 111 % of control. For the same molecule, the T/C (endpoint: mean survival time, dose: 50.0 mg/kg/injection, schedule: Q08DX002 (ip), vehicle: saline) was 115 % of control, the T/C (endpoint: mean survival time, dose: 59.0 mg/kg/injection, schedule: Q01DX001 (ip), vehicle: saline) was 117 % of control and the T/C (endpoint: mean survival time, dose: 65.0 mg/kg/injection, schedule: Q01DX009 (sc), vehicle: saline) was 151 % of control. For the same molecule, the T/C (endpoint: mean survival time, dose: 100.0 mg/kg/injection, schedule: Q01DX001 (ip), vehicle: water) was 112 % of control, the T/C (endpoint: mean survival time, dose: 100.0 mg/kg/injection, schedule: Q01DX Z (ip), vehicle: saline) was 110 % of control and the T/C (endpoint: mean survival time, dose: 100.0 mg/kg/injection, schedule: Q08DX002 (ip), vehicle: saline) was 117 % of control. For the same molecule, the T/C (endpoint: mean survival time, dose: 108.0 mg/kg/injection, schedule: Q01DX009 (sc), vehicle: saline) was 110 % of control, the T/C (endpoint: mean survival time, dose: 118.0 mg/kg/injection, schedule: Q01DX001 (ip), vehicle: saline) was 158 % of control and the T/C (endpoint: mean survival time, dose: 200.0 mg/kg/injection, schedule: Q01DX001 (ip), vehicle: DMSO) was 110 % of control. For the same molecule, the T/C (endpoint: mean survival time, dose: 200.0 mg/kg/injection, schedule: Q01DX001 (ip), vehicle: Klucel (hydroxypropylcellulose) (HPC)) was 119 % of control, the T/C (endpoint: mean survival time, dose: 200.0 mg/kg/injection, schedule: Q01DX001 (ip), vehicle: water) was 119 % of control and the T/C (endpoint: mean survival time, dose: 230.0 mg/kg/injection, schedule: Q01DX001 (ip), vehicle: saline) was 157 % of control. The T/C (endpoint: mean survival time, dose: 234.0 mg/kg/injection, schedule: Q01DX001 (ip), vehicle: saline) was 168 % of control, the T/C (endpoint: mean survival time, dose: 300.0 mg/kg/injection, schedule: Q01DX001 (ip), vehicle: saline) was 114 % of control and the T/C (endpoint: mean survival time, dose: 400.0 mg/kg/injection, schedule: Q08DX002 (ip), vehicle: saline) was 102 % of control. The T/C (endpoint: mean survival time, dose: 468.0 mg/kg/injection, schedule: Q01DX001 (ip), vehicle: saline) was 152 % of control and 172 % of control, the T/C (endpoint: mean survival time, dose: 500.0 mg/kg/injection, schedule: Q01DX001 (ip), vehicle: saline) was 106 % of control and the T/C (endpoint: mean survival time, dose: 560.0 mg/kg/injection, schedule: Q01DX001 (ip), vehicle: saline) was 151 % of control. For the same molecule, the T/C (endpoint: median survival time, dose: 1000.0 mg/kg/injection, schedule: Q01DX001 (oral), vehicle: saline) was 119 % of control, the T/C (endpoint: median survival time, dose: 2000.0 mg/kg/injection, schedule: Q01DX001 (oral), vehicle: saline) was 516 % of control and the T/C (endpoint: median survival time, dose: 8000.0 mg/kg/injection, schedule: Q01DX001 (oral), vehicle: saline) was 45 % of control. The T/C (endpoint: median survival time, dose: 16000.0 mg/kg/injection, schedule: Q01DX001 (oral), vehicle: saline) was 43 % of control.
For `CN(N=O)C(=O)Nc1ccc(C(=O)O)cc1`, the T/C (endpoint: mean survival time, dose: 60.0 mg/kg/injection, schedule: Q01DX001 (ip), vehicle: carboxymethylcellulose (CMC)) was 110 % of control and the T/C (endpoint: mean survival time, dose: 120.0 mg/kg/injection, schedule: Q01DX001 (ip), vehicle: carboxymethylcellulose (CMC)) was 114 % of control.
In the case of `C=CC(CN1CC1)OC(C)=O` (stereo not given), the T/C (endpoint: mean survival time, dose: 2.5 mg/kg/injection, schedule: Q01DX Z (ip), vehicle: saline) is reported as 119 % of control, the T/C (endpoint: mean survival time, dose: 11.0 mg/kg/injection, schedule: Q01DX001 (ip), vehicle: saline) is reported as 113 % of control and 117 % of control and the T/C (endpoint: mean survival time, dose: 17.0 mg/kg/injection, schedule: Q01DX001 (ip), vehicle: saline) is reported as 117 % of control. For the same molecule, the T/C (endpoint: mean survival time, dose: 25.0 mg/kg/injection, schedule: Q01DX001 (ip), vehicle: saline) was 119 % of control, the T/C [2] was 120 % of control and the T/C (endpoint: mean survival time, dose: 30.0 mg/kg/injection, schedule: Q01DX Z (ip), vehicle: saline) was 105 % of control.
With `CN(Cc1cnc2nc(N)nc(N)c2n1)c1ccc(C(=O)N[C@@H](CCC(=O)O)C(=O)O)cc1` the T/C (endpoint: mean survival time, dose: 0.6 mg/kg/injection, schedule: Q01DX009 (ip), vehicle: saline) was 158 % of control, the T/C (endpoint: mean survival time, dose: 1.25 mg/kg/injection, schedule: Q01DX009 (ip), vehicle: other) was 150 % of control and the T/C (endpoint: mean survival time, dose: 1.25 mg/kg/injection, schedule: Q01DX009 (ip), vehicle: saline) was 168 % of control. The T/C (endpoint: mean survival time, dose: 2.5 mg/kg/injection, schedule: Q01DX009 (ip), vehicle: saline) was 112 % of control, the T/C (endpoint: mean survival time, dose: 3.0 mg/kg/injection, schedule: Q01DX009 (ip), vehicle: sodium bicarbonate) was 108 % of control and the T/C (endpoint: mean survival time, dose: 5.0 mg/kg/injection, schedule: Q01DX009 (ip), vehicle: saline) was 95 % of control. The T/C (endpoint: mean survival time, dose: 5.0 mg/kg/injection, schedule: Q01DX009 (ip), vehicle: sodium bicarbonate) was 94 % of control, the T/C (endpoint: mean survival time, dose: 8.0 mg/kg/injection, schedule: Q01DX001 (ip), vehicle: sodium bicarbonate) was 111 % of control and the T/C (endpoint: mean survival time, dose: 14.0 mg/kg/injection, schedule: Q04DX003 (ip), vehicle: sodium bicarbonate) was 113 % of control. The T/C (endpoint: mean survival time, dose: 16.0 mg/kg/injection, schedule: Q01DX001 (ip), vehicle: sodium bicarbonate) was 114 % of control, the T/C (endpoint: mean survival time, dose: 19.0 mg/kg/injection, schedule: Q01DX001 (ip), vehicle: water) was 108 % of control and the T/C (endpoint: mean survival time, dose: 23.0 mg/kg/injection, schedule: Q04DX003 (ip), vehicle: sodium bicarbonate) was 112 % of control. For the same molecule, the T/C (endpoint: mean survival time, dose: 29.0 mg/kg/injection, schedule: Q01DX001 (ip), vehicle: water) was 111 % of control, the T/C (endpoint: mean survival time, dose: 32.0 mg/kg/injection, schedule: Q01DX001 (ip), vehicle: sodium bicarbonate) was 117 % of control and the T/C (endpoint: mean survival time, dose: 39.0 mg/kg/injection, schedule: Q04DX003 (ip), vehicle: sodium bicarbonate) was 115 % of control. The T/C (endpoint: mean survival time, dose: 43.0 mg/kg/injection, schedule: Q01DX001 (ip), vehicle: water) was 113 % of control, the T/C (endpoint: mean survival time, dose: 64.0 mg/kg/injection, schedule: Q01DX001 (ip), vehicle: sodium bicarbonate) was 121 % of control and the T/C (endpoint: mean survival time, dose: 65.0 mg/kg/injection, schedule: Q04DX003 (ip), vehicle: sodium bicarbonate) was 100 % of control. The T/C (endpoint: mean survival time, dose: 128.0 mg/kg/injection, schedule: Q01DX001 (ip), vehicle: sodium bicarbonate) was 109 % of control, the T/C (endpoint: median survival time, dose: 0.5 mg/kg/injection, schedule: Q01DX009 (ip), vehicle: sodium bicarbonate) was 102 % of control and the T/C (endpoint: median survival time, dose: 1.0 mg/kg/injection, schedule: Q01DX009 (ip), vehicle: sodium bicarbonate) was 113 % of control.
For `Nc1ncnc2c1ccn2C1OC(CO)C(O)C1O` (stereo not given), the T/C (endpoint: mean survival time, dose: 1.2 mg/kg/injection, schedule: Q01DX001 (ip), vehicle: carboxymethylcellulose (CMC)) was 96 % of control, the T/C (endpoint: mean survival time, dose: 1.9 mg/kg/injection, schedule: Q01DX001 (ip), vehicle: carboxymethylcellulose (CMC)) was 97 % of control and the T/C (endpoint: mean survival time, dose: 2.9 mg/kg/injection, schedule: Q01DX001 (ip), vehicle: carboxymethylcellulose (CMC)) was 100 % of control.
With `CCOC(N)=O` the T/C (endpoint: mean survival time, dose: 1074.0 mg/kg/injection, schedule: Q01DX001 (ip), vehicle: saline) was 104 % of control and the T/C (endpoint: mean survival time, dose: 1601.0 mg/kg/injection, schedule: Q01DX001 (ip), vehicle: saline) was 106 % of control.
With `CNC(=O)N(C)N=O` the T/C [1] was 115 % of control, the T/C (endpoint: mean survival time, dose: 167.0 mg/kg/injection, schedule: Q01DX001 (ip), vehicle: carboxymethylcellulose (CMC)) was 113 % of control and the T/C (endpoint: mean survival time, dose: 225.0 mg/kg/injection, schedule: Q01DX001 (ip), vehicle: carboxymethylcellulose (CMC)) was 161 % of control. The T/C (endpoint: mean survival time, dose: 375.0 mg/kg/injection, schedule: Q01DX001 (ip), vehicle: carboxymethylcellulose (CMC)) was 112 % of control.
In the case of `CN(N=O)C(=O)NCCSc1ncnc2nc[nH]c12`, the T/C (endpoint: mean survival time, dose: 400.0 mg/kg/injection, schedule: Q01DX001 (ip), vehicle: carboxymethylcellulose (CMC)) is reported as 113 % of control and the T/C (endpoint: mean survival time, dose: 500.0 mg/kg/injection, schedule: Q01DX001 (ip), vehicle: carboxymethylcellulose (CMC)) is reported as 121 % of control.
